{"source": "patent US11591336B2", "about": "(Relay Therapeutics, Inc., priority 2017, dated 2023)", "note": "Structures can show the parent of a compound that is named as a salt."}
{"target": "SHP2 (Homo sapiens (Human), UniProt Q06124)", "sequence (Q06124 whole entry)": "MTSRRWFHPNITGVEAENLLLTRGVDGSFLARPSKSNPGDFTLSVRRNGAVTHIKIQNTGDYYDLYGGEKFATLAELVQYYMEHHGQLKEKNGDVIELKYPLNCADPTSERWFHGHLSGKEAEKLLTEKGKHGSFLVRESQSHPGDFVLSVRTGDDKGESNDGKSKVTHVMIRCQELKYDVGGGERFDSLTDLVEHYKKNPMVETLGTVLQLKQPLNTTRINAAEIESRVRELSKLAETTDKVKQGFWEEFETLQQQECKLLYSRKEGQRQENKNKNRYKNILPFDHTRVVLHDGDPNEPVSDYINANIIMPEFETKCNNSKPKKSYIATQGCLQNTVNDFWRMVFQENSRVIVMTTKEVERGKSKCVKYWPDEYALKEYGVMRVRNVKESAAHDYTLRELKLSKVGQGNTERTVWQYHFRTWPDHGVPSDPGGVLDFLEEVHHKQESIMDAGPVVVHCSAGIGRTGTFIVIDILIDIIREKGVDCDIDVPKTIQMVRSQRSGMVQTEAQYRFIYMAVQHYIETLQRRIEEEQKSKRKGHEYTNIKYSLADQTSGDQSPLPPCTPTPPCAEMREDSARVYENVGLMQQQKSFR", "test": "SHP2 Allosteric Inhibition Assay (DiFMUP prompt fluorescence)", "format": "biochemical", "conditions": "0.25 nM SHP2 activated with 0.5 μM peptide IRS1_pY1172(dPEG8)pY1222; substrate DiFMUP 100 μM; 25° C.", "units": {"IC50": "nM"}}
{"smiles": "Cc1c(C#N)ccc2c1CCCN2c1n[nH]c2nc(N3CCC(C)(CN)CC3)cnc12", "note": "[Compound 120]", "IC50": "< 1000"}
{"smiles": "Cn1cc(-c2cccc3c2CCCN3c2n[nH]c3nc(N4CCC(C)(CN)CC4)cnc23)cn1", "note": "[Compound 121]", "IC50": "< 1000"}
{"smiles": "CC1(CN)CCN(c2cnc3c(N4CCCc5c4ccc(C#N)c5C4CC4)n[nH]c3n2)CC1", "note": "[Compound 122]", "IC50": "< 1000"}
{"smiles": "CC1CN(c2n[nH]c3nc(N4CCC(C)(CN)CC4)cnc23)c2ccccc21", "note": "(stereo not shown) [Compound 123]", "IC50": "< 1000"}
{"smiles": "CC1(CN)CCN(c2cnc3c(N4CCc5ncccc54)n[nH]c3n2)CC1", "note": "[Compound 124]", "IC50": "< 1000"}
{"smiles": "CC1(CN)CCN(c2cnc3c(N4CCc5cnccc54)n[nH]c3n2)CC1", "note": "[Compound 125]", "IC50": "1000 to 10000"}
{"smiles": "CC1(CN)CCN(c2cnc3c(N4CCCc5nc(C#N)ccc54)n[nH]c3n2)CC1", "note": "[Compound 126]", "IC50": "< 1000"}
{"smiles": "CN1CCN(c2n[nH]c3nc(N4CCC(C)(CN)CC4)cnc23)c2ccccc21", "note": "[Compound 127]", "IC50": "< 1000"}
{"smiles": "CC1(CN)CCN(c2cnc3c(N4CCCc5c(Cl)cccc54)n[nH]c3n2)CC1", "note": "[Compound 130]", "IC50": "< 1000"}
{"smiles": "Cn1cc(-c2c(C#N)ccc3c2CCCN3c2n[nH]c3nc(N4CCC(C)(CN)CC4)cnc23)cn1", "note": "[Compound 131]", "IC50": "< 1000"}
{"smiles": "CC1(CN)CCN(c2cnc3c(N4CCCc5c4ccnc5Cl)n[nH]c3n2)CC1", "note": "[Compound 132]", "IC50": "< 1000"}
{"smiles": "CC1(CN)CCN(c2cnc3c(N4CCc5cc(C#N)ccc54)n[nH]c3n2)CC1", "note": "[Compound 133]", "IC50": "< 1000"}
{"smiles": "C[C@H]1Cc2ccccc2N1c1n[nH]c2nc(N3CCC(C)(CN)CC3)cnc12", "note": "[Compound 134]", "IC50": "< 1000"}
{"smiles": "C[C@@H]1Cc2ccccc2N1c1n[nH]c2nc(N3CCC(C)(CN)CC3)cnc12", "note": "[Compound 135]", "IC50": "< 1000"}
{"smiles": "NS(=O)(=O)C1CCCN(c2cnc3c(N4CCCc5ncccc54)n[nH]c3n2)C1", "note": "(stereo not shown) [Compound 137]", "IC50": "< 1000"}
{"smiles": "OCC1CCCCN1c1cnc2c(N3CCCc4ncccc43)n[nH]c2n1", "note": "(stereo not shown) [Compound 138]", "IC50": "< 1000"}
{"smiles": "c1ccc(CC2CCCN(c3cnc4c(N5CCCc6ncccc65)n[nH]c4n3)C2)cc1", "note": "(stereo not shown) [Compound 139]", "IC50": "< 1000"}
{"smiles": "c1cncc(COC2CCN(c3cnc4c(N5CCCc6ncccc65)n[nH]c4n3)CC2)c1", "note": "[Compound 140]", "IC50": "≥ 10000"}
{"smiles": "CC1(C)CCN(c2cnc3c(N4CCCc5ncccc54)n[nH]c3n2)CC1", "note": "[Compound 141]", "IC50": "≥ 10000"}
{"smiles": "c1ccc(OC2CCCN(c3cnc4c(N5CCCc6ncccc65)n[nH]c4n3)C2)cc1", "note": "(stereo not shown) [Compound 142]", "IC50": "≥ 10000"}
{"smiles": "OC1CCCN(c2cnc3c(N4CCCc5ncccc54)n[nH]c3n2)C1", "note": "(stereo not shown) [Compound 143]", "IC50": "≥ 10000"}
{"smiles": "c1ccc(CC2CCCN2c2cnc3c(N4CCCc5ncccc54)n[nH]c3n2)cc1", "note": "(stereo not shown) [Compound 144]", "IC50": "≥ 10000"}
{"smiles": "CC1(CO)CCN(c2cnc3c(N4CCCc5ncccc54)n[nH]c3n2)CC1", "note": "[Compound 145]", "IC50": "≥ 10000"}
{"smiles": "c1ccc(CC2CCN(c3cnc4c(N5CCCc6ncccc65)n[nH]c4n3)C2)cc1", "note": "(stereo not shown) [Compound 146]", "IC50": "≥ 10000"}
{"smiles": "c1ccc(C2CCCN2c2cnc3c(N4CCCc5ncccc54)n[nH]c3n2)cc1", "note": "(stereo not shown) [Compound 147]", "IC50": "≥ 10000"}
{"smiles": "CC1CCCCN1c1cnc2c(N3CCCc4ncccc43)n[nH]c2n1", "note": "(stereo not shown) [Compound 148]", "IC50": "≥ 10000"}
{"smiles": "NC(=O)C1CCCN(c2cnc3c(N4CCCc5ncccc54)n[nH]c3n2)C1", "note": "(stereo not shown) [Compound 149]", "IC50": "≥ 10000"}
{"smiles": "NC[C@@H]1C[C@H]2CC[C@@H](C1)N2c1cnc2c(N3CCCc4ncccc43)n[nH]c2n1", "note": "[Compound 150]", "IC50": "< 1000"}
{"smiles": "c1ccc(C2CCN(c3cnc4c(N5CCCc6ncccc65)n[nH]c4n3)C2)cc1", "note": "(stereo not shown) [Compound 151]", "IC50": "≥ 10000"}
{"smiles": "c1ccc(C2CCCN(c3cnc4c(N5CCCc6ncccc65)n[nH]c4n3)C2)cc1", "note": "(stereo not shown) [Compound 152]", "IC50": "≥ 10000"}
{"smiles": "CCC1(C)CCN(c2cnc3c(N4CCCc5ncccc54)n[nH]c3n2)CC1", "note": "[Compound 153]", "IC50": "≥ 10000"}
{"smiles": "c1cnc2c(c1)N(c1n[nH]c3nc(N4CCCCC4)cnc13)CCC2", "note": "[Compound 155]", "IC50": "≥ 10000"}
{"smiles": "c1cncc(COC2CCCN(c3cnc4c(N5CCCc6ncccc65)n[nH]c4n3)C2)c1", "note": "(stereo not shown) [Compound 156]", "IC50": "≥ 10000"}
{"smiles": "NC(=O)C1CCN(c2cnc3c(N4CCCc5ncccc54)n[nH]c3n2)CC1", "note": "[Compound 157]", "IC50": "1000 to 10000"}
{"smiles": "NC(=O)NC1CCN(c2cnc3c(N4CCCc5ncccc54)n[nH]c3n2)CC1", "note": "[Compound 160]", "IC50": "≥ 10000"}
{"smiles": "c1ccc(CC2CCCCN2c2cnc3c(N4CCCc5ncccc54)n[nH]c3n2)cc1", "note": "(stereo not shown) [Compound 161]", "IC50": "≥ 10000"}
{"smiles": "c1ccc(C2CCCCN2c2cnc3c(N4CCCc5ncccc54)n[nH]c3n2)cc1", "note": "(stereo not shown) [Compound 162]", "IC50": "≥ 10000"}
{"smiles": "CC1(CN)CCN(c2cnc3c(N4CCOc5ccccc54)n[nH]c3n2)CC1", "note": "[Compound 163]", "IC50": "< 1000"}
{"smiles": "CC1(CN)CCN(c2cnc3c(N4CCc5c(C#N)cccc54)n[nH]c3n2)CC1", "note": "[Compound 164]", "IC50": "< 1000"}
{"smiles": "CC1CCN(c2n[nH]c3nc(N4CCC(C)(CN)CC4)cnc23)c2ccc(-c3ncn[nH]3)cc21", "note": "(stereo not shown) [Compound 165]", "IC50": "< 1000"}
{"smiles": "CC1(CNC(=O)OCCSSCCOC(=O)NCC2(C)CCN(c3cnc4c(N5CCCc6ncccc65)n[nH]c4n3)CC2)CCN(c2cnc3c(N4CCCc5ncccc54)n[nH]c3n2)CC1", "note": "[Compound 166, disulfanediylbis(ethane-2,1-diyl) bis(((1-(3-(3,4-dihydro-1,5-naphthyridin-1(2H)-yl)-1H-pyrazolo[3,4-b]pyrazin-6-yl)-4-methylpiperidin-4-yl)methyl)carbamate)]", "IC50": "< 1000"}
{"smiles": "NC[C@H]1CCN(c2cnc3c(N4CCCc5ncccc54)n[nH]c3n2)[C@H](c2ccccc2)C1", "note": "[Compound 167]", "IC50": "1000 to 10000"}
{"smiles": "NC[C@@H]1CCN(c2cnc3c(N4CCCc5ncccc54)n[nH]c3n2)[C@@H](c2ccccc2)C1", "note": "[Compound 168]", "IC50": "1000 to 10000"}
{"smiles": "CC1c2ccccc2CCN1c1n[nH]c2nc(N3CCC(C)(CN)CC3)cnc12", "note": "(stereo not shown) [Compound 169]", "IC50": "< 1000"}
{"smiles": "C[C@H]1c2ccccc2CN1c1n[nH]c2nc(N3CCC(C)(CN)CC3)cnc12", "note": "[Compound 170]", "IC50": "< 1000"}
{"smiles": "CC1CCN(c2n[nH]c3nc(N4CCC(CN)(CC(=O)O)CC4)cnc23)c2cccnc21", "note": "(stereo not shown) [Compound 171, 2-[4-(aminomethyl)-1-[3-(4-methyl-1,2,3,4-tetrahydro-1,5-naphthyridin-1-yl)-1H-pyrazolo[3,4-b]pyrazin-6-yl]piperidin-4-yl]acetic acid]", "IC50": "1000 to 10000"}
{"smiles": "CC1(CN)CCN(c2cnc3c(N4CCCc5cc(-c6ncon6)ccc54)n[nH]c3n2)CC1", "note": "[Compound 172, (1-(3-(6-(1,2,4-oxadiazol-3-yl)-3,4-dihydroquinolin-1(2H)-yl)-1H-pyrazolo[3,4-b]pyrazin-6-yl)-4-methylpiperidin-4-yl)methanamine]", "IC50": "< 1000"}
{"smiles": "CC1(CN)CCN(c2cnc3c(N4CCc5c(-c6nccs6)cccc54)n[nH]c3n2)CC1", "note": "[Compound 173]", "IC50": "< 1000"}
{"smiles": "COC(=O)NCC1(C)CCN(c2cnc3c(N4CCCc5cc(C#N)ccc54)n[nH]c3n2)CC1", "note": "[Compound 174, methyl ((1-(3-(6-cyano-3,4-dihydroquinolin-1(2H)-yl)-1H-pyrazolo[3,4-b]pyrazin-6-yl)-4-methylpiperidin-4-yl)methyl)carbamate]", "IC50": "≥ 10000"}
{"smiles": "CC1(CN)CCN(c2cnc3c(N4CCCc5nc(C(N)=O)ccc54)n[nH]c3n2)CC1", "note": "[Compound 175, 5-(6-(4-(aminomethyl)-4-methylpiperidin-1-yl)-1H-pyrazolo[3,4-b]pyrazin-3-yl)-5,6,7,8-tetrahydro-1,5-naphthyridine-2-carboxamide]", "IC50": "< 1000"}
{"smiles": "NCC1(CN)CCN(c2cnc3c(N4CCCc5ncccc54)n[nH]c3n2)CC1", "note": "[Compound 177, 1-[4-(aminomethyl)-1-[3-(1,2,3,4-tetrahydro-1,5-naphthyridin-1-yl)-1H-pyrazolo[3,4-b]pyrazin-6-yl]piperidin-4-yl]methanamine dihydrochloride]", "IC50": "< 1000"}
{"smiles": "NC(C(=O)O)C1CCN(c2cnc3c(N4CCCc5ncccc54)n[nH]c3n2)CC1", "note": "(stereo not shown) [Compound 178, 2-amino-2-{1-[3-(1,2,3,4-tetrahydro-1,5-naphthyridin-1-yl)-1H-pyrazolo[3,4-b]pyrazin-6-yl]piperidin-4-yl}acetic acid dihydrochloride]", "IC50": "1000 to 10000"}
{"smiles": "NCC1(N)CCN(c2cnc3c(N4CCCc5ncccc54)n[nH]c3n2)CC1", "note": "[Compound 179]", "IC50": "< 1000"}
{"smiles": "NCC1(C(N)=O)CCN(c2cnc3c(N4CCCc5ncccc54)n[nH]c3n2)CC1", "note": "[Compound 180, 4-(aminomethyl)-1-(3-(3,4-dihydro-1,5-naphthyridin-1(2H)-yl)-1H-pyrazolo[3,4-b]pyrazin-6-yl)piperidine-4-carboxamide]", "IC50": "< 1000"}
{"smiles": "CC1(CN)CCN(c2cnc3c(N4CCC(C(F)F)c5cc(C#N)ccc54)n[nH]c3n2)CC1", "note": "(stereo not shown) [Compound 181, 1-{6-[4-(aminomethyl)-4-methylpiperidin-1-yl]-1H-pyrazolo[3,4-b]pyrazin-3-yl}-4-(difluoromethyl)-1,2,3,4-tetrahydroquinoline-6-carbonitrile]", "IC50": "< 1000"}
{"smiles": "Cn1cc(-c2ccc3c(n2)CCCN3c2n[nH]c3nc(N4CCC(C)(CN)CC4)cnc23)cn1", "note": "[Compound 182]", "IC50": "< 1000"}
{"smiles": "C[C@H]1CCN(c2n[nH]c3nc(N4CCC(C)(CN)CC4)cnc23)c2ccc(-c3ncon3)cc21", "note": "[Compound 183, 1-(4-methyl-1-{3-[(4S)-4-methyl-6-(1,2,4-oxadiazol-3-yl)-1,2,3,4-tetrahydroquinolin-1-yl]-1H-pyrazolo[3,4-b]pyrazin-6-yl}piperidin-4-yl)methanamine]", "IC50": "< 1000"}
{"smiles": "CC1(CN)CCN(c2cnc3c(N4CCCc5c4cccc5S(C)(=O)=O)n[nH]c3n2)CC1", "note": "[Compound 185]", "IC50": "< 1000"}
{"smiles": "CN1CCN(c2n[nH]c3nc(N4CCC(C)(CN)CC4)cnc23)c2cccnc21", "note": "[Compound 186]", "IC50": "< 1000"}
{"smiles": "CC(=O)N1CCN(c2n[nH]c3nc(N4CCC(C)(CN)CC4)cnc23)c2ccc(C#N)cc21", "note": "[Compound 187]", "IC50": "< 1000"}
{"smiles": "Cn1cc(-c2ccc3c(n2)OCCN3c2n[nH]c3nc(N4CCC(C)(CN)CC4)cnc23)cn1", "note": "[Compound 188]", "IC50": "< 1000"}
{"smiles": "CNC(=O)N1CCN(c2n[nH]c3nc(N4CCC(C)(CN)CC4)cnc23)c2ccccc21", "note": "[Compound 189]", "IC50": "< 1000"}
{"smiles": "CC1(CN)CCN(c2cnc3c(N4CCNc5ccccc54)n[nH]c3n2)CC1", "note": "[Compound 190]", "IC50": "< 1000"}
{"smiles": "CSc1cccc2c1CCCN2c1n[nH]c2nc(N3CCC(C)(CN)CC3)cnc12", "note": "[Compound 191]", "IC50": "< 1000"}
